ChEMBL document CHEMBL1201862, “PubChem BioAssay data set” (2004)
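Exposure lasted 48 hours, with cells grown in 96-well plates and compounds tested at five concentrations. GI50: concentration for 50% inhibition of growth.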 Active and inactive are the calls of the source. Cut-off read from the data, not from the text of the source: active = GI50 up to about 1.1 µM and inactive = higher.

Legend:
Test in all cases: NCI tumour cell line growth inhibition, 48 h
NCI-H226 = system: NCI-H226
UO-31 = system: UO-31
KM12 = system: KM12
HOP-92 = system: HOP-92
NCI/ADR-RES = system: NCI/ADR-RES
TK-10 = system: TK-10
M14 = system: M14
OVCAR-3 = system: OVCAR-3
Malme-3M = system: Malme-3M
A549 = system: A549
UACC-257 = system: UACC-257
OVCAR-8 = system: OVCAR-8
HCT-116 = system: HCT-116
CAKI-1 = system: CAKI-1
SNB-75 = system: SNB-75
MDA-MB-435 = system: MDA-MB-435
NCI-H460 = system: NCI-H460
EKVX = system: EKVX
HT-29 = system: HT-29
CCRF-CEM = system: CCRF-CEM

| SMILES | GI50 (NCI-H226) | GI50 (UO-31) | GI50 (KM12) | GI50 (HOP-92) | GI50 (NCI/ADR-RES) | GI50 (TK-10) | GI50 (M14) | GI50 (OVCAR-3) | GI50 (Malme-3M) | GI50 (A549) | GI50 (UACC-257) | GI50 (OVCAR-8) | GI50 (HCT-116) | GI50 (CAKI-1) | GI50 (SNB-75) | GI50 (MDA-MB-435) | GI50 (NCI-H460) | GI50 (EKVX) | GI50 (HT-29) | GI50 (CCRF-CEM) |
| --- | --- | --- | --- | --- | --- | --- | --- | --- | --- | --- | --- | --- | --- | --- | --- | --- | --- | --- | --- | --- |
| CCCC/C=C1/CCC(CN(C)C)C1=O (stereo not drawn) | 11.1 µM (inactive) | 2.3 µM (inactive) | 0.673 µM (active) | 2.07 µM (inactive) | 2.64 µM (inactive) | 1.01 µM (active) | 1.71 µM (inactive) | 1.94 µM (inactive) | 1.98 µM (inactive) | 6.58 µM (inactive) | 2.17 µM (inactive) | 1.83 µM (inactive) | 1.84 µM (inactive) | 0.745 µM (active) | 3.21 µM (inactive) | 11 µM (inactive) | – | – | – | – |
| CN(C)Cc1ccc(O)c(CN(C)C)n1 | > 100 µM (inactive) | > 100 µM (inactive) | > 100 µM (inactive) | > 100 µM (inactive) | > 100 µM (inactive) | > 100 µM (inactive) | > 100 µM (inactive) | > 100 µM (inactive) | > 100 µM (inactive) | > 100 µM (inactive) | > 100 µM (inactive) | > 100 µM (inactive) | > 100 µM (inactive) | > 100 µM (inactive) | > 100 µM (inactive) | > 100 µM (inactive) | > 100 µM (inactive) | > 100 µM (inactive) | > 100 µM (inactive) | – |
| NC(=O)N/N=C/c1ccccc1O | > 100 µM (inactive) | > 100 µM (inactive) | > 100 µM (inactive) | > 100 µM (inactive) | > 100 µM (inactive) | > 100 µM (inactive) | > 100 µM (inactive) | – | – | – | > 100 µM (inactive) | > 100 µM (inactive) | > 100 µM (inactive) | > 100 µM (inactive) | > 100 µM (inactive) | > 100 µM (inactive) | > 100 µM (inactive) | 45 µM (inactive) | > 100 µM (inactive) | > 100 µM (inactive) |
| CC1=CC(=O)/C(=C/N2C(=O)CNC2=S)C(=O)O1 | > 100 µM (inactive) | > 100 µM (inactive) | > 100 µM (inactive) | > 100 µM (inactive) | > 100 µM (inactive) | > 100 µM (inactive) | > 100 µM (inactive) | > 100 µM (inactive) | – | > 100 µM (inactive) | > 100 µM (inactive) | > 100 µM (inactive) | > 100 µM (inactive) | > 100 µM (inactive) | > 100 µM (inactive) | > 100 µM (inactive) | > 100 µM (inactive) | > 100 µM (inactive) | > 100 µM (inactive) | – |
| OCC1(CNc2cc(Cl)ncn2)CCC1 | > 100 µM (inactive) | > 100 µM (inactive) | > 100 µM (inactive) | > 100 µM (inactive) | > 100 µM (inactive) | > 100 µM (inactive) | – | > 100 µM (inactive) | > 100 µM (inactive) | > 100 µM (inactive) | > 100 µM (inactive) | > 100 µM (inactive) | > 100 µM (inactive) | – | > 100 µM (inactive) | > 100 µM (inactive) | > 100 µM (inactive) | > 100 µM (inactive) | > 100 µM (inactive) | > 100 µM (inactive) |
| COC(=O)c1c(O)ccc2c1c1cc3ccccc3c(O)c1n2Cc1ccccc1Cl | 31.8 µM (inactive) | 22.1 µM (inactive) | 19.3 µM (inactive) | 16.9 µM (inactive) | 21.8 µM (inactive) | 37.2 µM (inactive) | 23.4 µM (inactive) | 15.7 µM (inactive) | 30.3 µM (inactive) | 23.5 µM (inactive) | 47.5 µM (inactive) | 25.3 µM (inactive) | 13.2 µM (inactive) | 22.4 µM (inactive) | – | 18.5 µM (inactive) | 18.2 µM (inactive) | 25.8 µM (inactive) | 11.7 µM (inactive) | 34.7 µM (inactive) |
| O[C@H]1[C@H](O)[C@@H](O)[C@@]2(O)C[C@@H](O)[C@@H]1N2 | > 100 µM (inactive) | 85.7 µM (inactive) | > 100 µM (inactive) | > 100 µM (inactive) | > 100 µM (inactive) | > 100 µM (inactive) | > 100 µM (inactive) | > 100 µM (inactive) | > 100 µM (inactive) | > 100 µM (inactive) | > 100 µM (inactive) | > 100 µM (inactive) | > 100 µM (inactive) | – | > 100 µM (inactive) | > 100 µM (inactive) | > 100 µM (inactive) | > 100 µM (inactive) | > 100 µM (inactive) | > 100 µM (inactive) |
| O=C(c1ccccc1)C1C(c2ccccc2[N+](=O)[O-])N1C1CCCCC1 (stereo not drawn) | 17 µM (inactive) | 6.61 µM (inactive) | 11.9 µM (inactive) | 3.5 µM (inactive) | 6.05 µM (inactive) | 2.74 µM (inactive) | 9.42 µM (inactive) | 2.5 µM (inactive) | 12.4 µM (inactive) | 16.6 µM (inactive) | 3.21 µM (inactive) | 1.86 µM (inactive) | 1.8 µM (inactive) | 3.44 µM (inactive) | – | 2.6 µM (inactive) | 9.2 µM (inactive) | 13.7 µM (inactive) | 4.1 µM (inactive) | – |
| CC1=CC(=O)/C(=C/NC(=S)C(N)=S)C(=O)O1 | > 100 µM (inactive) | > 100 µM (inactive) | > 100 µM (inactive) | > 100 µM (inactive) | > 100 µM (inactive) | > 100 µM (inactive) | > 100 µM (inactive) | > 100 µM (inactive) | – | > 100 µM (inactive) | > 100 µM (inactive) | > 100 µM (inactive) | > 100 µM (inactive) | > 100 µM (inactive) | 19 µM (inactive) | > 100 µM (inactive) | > 100 µM (inactive) | > 100 µM (inactive) | > 100 µM (inactive) | 44 µM (inactive) |
| Cc1n[n+]([O-])c(C)cc1[N+](=O)[O-] | 26.9 µM (inactive) | 16.2 µM (inactive) | – | 16.8 µM (inactive) | 20.6 µM (inactive) | 8.67 µM (inactive) | 15.7 µM (inactive) | 14.5 µM (inactive) | 20.9 µM (inactive) | 22 µM (inactive) | 15.6 µM (inactive) | 15.5 µM (inactive) | 16.1 µM (inactive) | – | 23.8 µM (inactive) | 15.6 µM (inactive) | 14 µM (inactive) | 23.5 µM (inactive) | 14.1 µM (inactive) | 1.36 µM (inactive) |
| COC(=O)C1(C(=O)OC)CC2=C(S(=O)(=O)c3ccccc3)C[C@H](C#N)[C@H]2C1 | > 100 µM (inactive) | > 100 µM (inactive) | > 100 µM (inactive) | 69.8 µM (inactive) | > 100 µM (inactive) | > 100 µM (inactive) | > 100 µM (inactive) | – | > 100 µM (inactive) | > 100 µM (inactive) | > 100 µM (inactive) | > 100 µM (inactive) | > 100 µM (inactive) | > 100 µM (inactive) | > 100 µM (inactive) | 49.1 µM (inactive) | – | > 100 µM (inactive) | > 100 µM (inactive) | > 100 µM (inactive) |
| COc1cc2c(cc1OCCCCN1CCN(CCCCOc3cc4c(cc3OC)C(=O)N3CCC[C@H]3C=N4)CC1)N=C[C@@H]1CCCN1C2=O | < 0.01 µM (active) | 0.0798 µM (active) | 0.0628 µM (active) | < 0.01 µM (active) | 1.94 µM (inactive) | 0.0589 µM (active) | 0.02 µM (active) | 0.0372 µM (active) | 0.031 µM (active) | 0.0923 µM (active) | 0.0627 µM (active) | < 0.0172 µM (active) | 0.0216 µM (active) | 0.0318 µM (active) | 0.0262 µM (active) | 0.0508 µM (active) | 0.0234 µM (active) | 0.281 µM (active) | 0.0443 µM (active) | – |
| C/C(=C\COP(=O)(O)OP(=O)(O)O)CC/C=C(\C)CNc1c(F)c(F)c(F)c(F)c1F | 20.3 µM (inactive) | > 100 µM (inactive) | > 100 µM (inactive) | 82.2 µM (inactive) | > 100 µM (inactive) | > 51.1 µM (inactive) | > 100 µM (inactive) | > 100 µM (inactive) | – | > 48.6 µM (inactive) | > 70.3 µM (inactive) | > 64.3 µM (inactive) | > 25.5 µM (inactive) | > 100 µM (inactive) | 1.69 µM (inactive) | > 100 µM (inactive) | > 100 µM (inactive) | > 54.3 µM (inactive) | > 58.3 µM (inactive) | 0.126 µM (active) |
| Cc1nc(O)nc2nc3ccc(Cl)cc3c(N(CCO)CCO)c12 | 26.8 µM (inactive) | 73.6 µM (inactive) | 40 µM (inactive) | > 100 µM (inactive) | > 100 µM (inactive) | > 100 µM (inactive) | > 100 µM (inactive) | > 100 µM (inactive) | > 100 µM (inactive) | > 100 µM (inactive) | > 100 µM (inactive) | > 100 µM (inactive) | > 100 µM (inactive) | 96.2 µM (inactive) | – | > 100 µM (inactive) | 48.2 µM (inactive) | 0.762 µM (active) | > 100 µM (inactive) | > 100 µM (inactive) |
| Clc1cccc2[nH]ncc12 | > 100 µM (inactive) | – | > 100 µM (inactive) | > 100 µM (inactive) | > 100 µM (inactive) | > 100 µM (inactive) | – | > 100 µM (inactive) | – | > 100 µM (inactive) | > 100 µM (inactive) | > 100 µM (inactive) | 66.7 µM (inactive) | 68.4 µM (inactive) | 45.3 µM (inactive) | > 100 µM (inactive) | > 100 µM (inactive) | 32.4 µM (inactive) | > 100 µM (inactive) | > 100 µM (inactive) |
